In PMC6944458, “Intracellular and in vivo evaluation of imidazo[2,1-b]thiazole-5-carboxamide anti-tuberculosis compounds” (PLoS ONE, 2020):
≈ marks a conversion by molar mass, not a printed value. Like-named read-outs stand apart in the source and are kept apart here.

Experiments:
Assay type in all cases: cell-based, Mycobacterium tuberculosis
[1] = system: Rifampicin resistant strain ACTCC35838; experiment: microbe, parasite or virus in culture; conditions: read-out: MIC RIF res2
[2] = system: Isoniazid resistant strain derived from H37Rv Mtb, katG mutant (Y155* = truncation)
[3] = system: Rifampicin resistant strain derived from H37Rv Mtb, ropB mutant (S522L)
[4] = system: Isoniazid resistant strain ACTCC35822
[5] = system: Fluoroquinolone resistant strain derived from H37Rv Mtb, gyrA mutant (D94N)

Row | Compound | MIC ([1]; Mycobacterium tuberculosis) [µM] | MIC INH res1 [2] [µM] | MIC RIF res1 [3] [µM] | MIC INH res2 [4] [µM] | MIC FQ res [5] [µM] | MIC [1] [µM] | MIC INH res2 ([4]; ACTCC35822) [µM]
1 | NNC(=O)c1ccncc1 [INH, Isoniazid] | 0.37 (≈ 0.0507 µg/mL) | >200 | 0.160 (≈ 0.0219 µg/mL) | >200 | 0.34 (≈ 0.0466 µg/mL) |  | 
2 | C[C@H]1COc2c(N3CCN(C)CC3)c(F)cc3c(=O)c(C(=O)O)cn1c23 [LEV, Levoflaxacin] |  | 3.97 (≈ 1.43 µg/mL) | 3.43 (≈ 1.24 µg/mL) |  | 91 (≈ 32.9 µg/mL) | 3.83 (≈ 1.38 µg/mL) | 5.83 (≈ 2.11 µg/mL)
3 | Cc1cn2c(C(=O)NCc3ccc(N4CCN(c5ccc(C(F)(F)F)cn5)CC4)c(F)c3)c(C)nc2s1 [ND-11543, N-(3-fluoro-4-(4-(5-(trifluoromethyl)pyridin-2-yl)piperazin-1-yl)benzyl)-2,6-dimethylimidazo[2,1-b]thiazole-5-carboxamide] | 0.0057 (≈ 0.00304 µg/mL) | 0.012 (≈ 0.00639 µg/mL) | 0.0017 (≈ 0.000905 µg/mL) | 0.0047 (≈ 0.0025 µg/mL) | 0.010 (≈ 0.00533 µg/mL) |  | 
4 | Cc1cn2c(C(=O)NCc3ccc(N4CCS(=O)(=O)CC4)c(F)c3)c(C)nc2s1 [ND-11903, N-(4-(1,1-Dioxidothiomorpholino)-3-fluorobenzyl)-2,6-dimethylimidazo[2,1-b]thiazole-5-carboxamide] | 7 (≈ 3.06 µg/mL) | 6.5 (≈ 2.84 µg/mL) | 2.9 (≈ 1.27 µg/mL) | 5.0 (≈ 2.18 µg/mL) | 3.2 (≈ 1.4 µg/mL) |  | 
5 | CCc1nc2sc(C)cn2c1C(=O)NCc1ccc(Oc2cccc(C(F)(F)F)c2)nc1 [ND-12024, 6-Ethyl-2-methyl-N-((6-(3-(trifluoromethyl)phenoxy)yridine-3-yl)methyl)imidazo[2,1-b]thiazole-5-carboxamide] | 0.13 (≈ 0.0599 µg/mL) | 0.49 (≈ 0.226 µg/mL) | 0.047 (≈ 0.0216 µg/mL) | 0.22 (≈ 0.101 µg/mL) | 0.40 (≈ 0.184 µg/mL) |  | 
6 | CCc1nc2ccc(Cl)cn2c1C(=O)NCc1ccc(N2CCC(c3ccc(OC(F)(F)F)cc3)CC2)cc1 [Q203] | 0.0056 (≈ 0.00312 µg/mL) | 0.0074 (≈ 0.00412 µg/mL) | 0.0030 (≈ 0.00167 µg/mL) | 0.0038 (≈ 0.00212 µg/mL) | 0.0058 (≈ 0.00323 µg/mL) |  | 
7 | CO[C@H]1/C=C/O[C@@]2(C)Oc3c(C)c(O)c4c(O)c(c(/C=N/N5CCN(C)CC5)c(O)c4c3C2=O)NC(=O)/C(C)=C\C=C\[C@H](C)[C@H](O)[C@@H](C)[C@@H](O)[C@@H](C)[C@H](OC(C)=O)[C@@H]1C [RIF, Rifampicin] | > 50 | 0.027 (≈ 0.0222 µg/mL) | 3.2 (≈ 2.63 µg/mL) | 0.013 (≈ 0.0107 µg/mL) | 0.043 (≈ 0.0354 µg/mL) |  | 
